In US20100267561A1, “HERBICIDAL PYRIDAZINONE DERIVATIVES” (priority 2007, published 2010):

Columns and labels:
Test in all cases: Test E pre-/postemergence plant response
Assay type in all cases: in vivo
[1] = test system: Italian ryegrass (Lolium multiflorum); settings: scale 0 to 100
Description: (§1) Seeds of plant species selected from bermudagrass (Cynodon dactylon), Surinam grass (Brachiaria decumbens), large crabgrass (Digitaria sanguinalis), green foxtail (Setaria viridis), goosegrass (Eleusine indica), johnsongrass (Sorghum halepense), kochia (Kochia scoparia), pitted morningglory (Ipomoea lacunosa), purple nutsedge (Cyperus rotundus), common ragweed (Ambrosia elation), black mustard (Brassica nigra), guineagrass (Panicum maximum), dallisgrass (Paspalum dilatatum), barnyardgrass (Echinochloa crus-galli), southern (S.) sandbur (Cenchrus echinatus), common sowthistle (Sonchus oleraceous), prickly sida (Sida spinosa), Italian ryegrass (Lolium multiflorum), common purslane (Portulaca oleracea), broadleaf signalgrass (Brachiaria platyphylla), common groundsel (Senecio vulgaris), common chickweed (Stellaria media), Virginia (V.) dayflower (Commelina virginica), tropical (T.) spiderwort (Commelina benghalensis), annual bluegrass (Poa annua), naked crabgrass (Digitaria nuda), itchgrass (Rottboellia cochinchinensis), quackgrass (Elytrigia repens), Canada horseweed (Conyza canadensis), field bindweed (Convolvulus arvensis), spanishneedles (Bidens bipinnata), common mallow (Malva sylvestris) and Russian thistle (Salsola kali) were planted and treated preemergence with test chemicals formulated in a non-phytotoxic solvent mixture which included a surfactant. At the same time, plants selected from these weed species were treated with postemergence applications of some of the test chemicals formulated in the same manner. Plants ranged in height from 2 to 18 cm (1- to 4-leaf stage) for postemergence treatments.
(§2) Treated plants and controls were maintained in a greenhouse for 14 to 21 days, after which time all species were compared to controls and visually evaluated. Plant response ratings, summarized in Table E, are based on a scale of 0 to 100 where 0 is no effect and 100 is complete control. A dash (-) response means no test result.

[2] = test system: annual bluegrass (Poa annua); settings: scale 0 to 100
Description: as §1, §2

[3] = test system: broadleaf signalgrass (Brachiaria platyphylla); settings: scale 0 to 100
Description: as §1, §2

[4] = test system: common mallow (Malva sylvestris); settings: Postemergence, scale 0 to 100
Description: as §1, §2

[5] = test system: guineagrass (Panicum maximum); settings: scale 0 to 100
Description: as §1, §2

[6] = test system: itchgrass (Rottboellia cochinchinensis); settings: scale 0 to 100
Description: as §1, §2

[7] = test system: naked crabgrass (Digitaria nuda); settings: scale 0 to 100
Description: as §1, §2

[8] = test system: pitted morningglory (Ipomoea lacunosa); settings: scale 0 to 100
Description: as §1, §2

[9] = test system: purple nutsedge (Cyperus rotundus); settings: scale 0 to 100
Description: as §1, §2

CCc1cc(-c2ccc(Cl)cc2)nn1-c1c(OC(=O)C(C)(C)C)cnn(C)c1=O [Compound 40]
40: Plant response rating, Itchgrass ([6]; Postemergence, 8 g ai/ha) | Plant response rating, Itchgrass ([6]; Postemergence, 16 g ai/ha)
0: Plant response rating, Bluegrass ([2]; Postemergence, 8 g ai/ha) | Plant response rating, Bluegrass ([2]; Postemergence, 16 g ai/ha) | Plant response rating, Mallow ([4]; 8 g ai/ha) | Plant response rating, Mallow ([4]; 16 g ai/ha) | Plant response rating, Mallow ([4]; 31 g ai/ha) | Plant response rating, Mallow ([4]; 62 g ai/ha) | Plant response rating, Morningglory ([8]; 16 g ai/ha, Preemergence) | Plant response rating, Morningglory ([8]; 31 g ai/ha, Preemergence) | Plant response rating, Morningglory ([8]; 62 g ai/ha, Preemergence) | Plant response rating, Morningglory ([8]; Postemergence, 8 g ai/ha) | Plant response rating, Morningglory ([8]; Postemergence, 16 g ai/ha) | Plant response rating, Morningglory ([8]; Postemergence, 31 g ai/ha) | Plant response rating, Morningglory ([8]; Postemergence, 62 g ai/ha) | Plant response rating, Nutsedge, Purple ([9]; 16 g ai/ha, Preemergence) | Plant response rating, Nutsedge, Purple ([9]; 31 g ai/ha, Preemergence) | Plant response rating, Nutsedge, Purple ([9]; 62 g ai/ha, Preemergence) | Plant response rating, Nutsedge, Purple ([9]; Postemergence, 8 g ai/ha) | Plant response rating, Nutsedge, Purple ([9]; Postemergence, 16 g ai/ha) | Plant response rating, Nutsedge, Purple ([9]; Postemergence, 31 g ai/ha) | Plant response rating, Nutsedge, Purple ([9]; Postemergence, 62 g ai/ha)
98: Plant response rating, Ryegrass, Italian ([1]; 16 g ai/ha, Preemergence) | Plant response rating, Signalgrass ([3]; 31 g ai/ha, Preemergence)
15: Plant response rating, Bluegrass ([2]; Postemergence, 31 g ai/ha) | Plant response rating, Bluegrass ([2]; Postemergence, 62 g ai/ha)
80: Plant response rating, Guineagrass ([5]; Postemergence, 8 g ai/ha) | Plant response rating, Itchgrass ([6]; Postemergence, 31 g ai/ha) | Plant response rating, Itchgrass ([6]; Postemergence, 62 g ai/ha)
85: Plant response rating, Itchgrass ([6]; 62 g ai/ha, Preemergence)
60: Plant response rating, Bluegrass ([2]; 8 g ai/ha, Preemergence) | Plant response rating, Itchgrass ([6]; 16 g ai/ha, Preemergence)
100: Plant response rating, Ryegrass, Italian ([1]; 31 g ai/ha, Preemergence) | Plant response rating, Ryegrass, Italian ([1]; 62 g ai/ha, Preemergence) | Plant response rating, Ryegrass, Italian ([1]; Postemergence, 31 g ai/ha) | Plant response rating, Ryegrass, Italian ([1]; Postemergence, 62 g ai/ha) | Plant response rating, Signalgrass ([3]; 62 g ai/ha, Preemergence) | Plant response rating, Signalgrass ([3]; Postemergence, 62 g ai/ha) | Plant response rating, Guineagrass ([5]; 16 g ai/ha, Preemergence) | Plant response rating, Guineagrass ([5]; 31 g ai/ha, Preemergence) | Plant response rating, Guineagrass ([5]; 62 g ai/ha, Preemergence) | Plant response rating, Guineagrass ([5]; Postemergence, 62 g ai/ha) | Plant response rating, Crabgrass, Naked ([7]; 31 g ai/ha, Preemergence) | Plant response rating, Crabgrass, Naked ([7]; 62 g ai/ha, Preemergence) | Plant response rating, Crabgrass, Naked ([7]; Postemergence, 62 g ai/ha)
95: Plant response rating, Bluegrass ([2]; 62 g ai/ha, Preemergence) | Plant response rating, Signalgrass ([3]; 16 g ai/ha, Preemergence) | Plant response rating, Signalgrass ([3]; Postemergence, 31 g ai/ha) | Plant response rating, Guineagrass ([5]; Postemergence, 31 g ai/ha) | Plant response rating, Crabgrass, Naked ([7]; Postemergence, 31 g ai/ha)
50: Plant response rating, Crabgrass, Naked ([7]; Postemergence, 8 g ai/ha)
90: Plant response rating, Ryegrass, Italian ([1]; Postemergence, 8 g ai/ha) | Plant response rating, Ryegrass, Italian ([1]; Postemergence, 16 g ai/ha) | Plant response rating, Bluegrass ([2]; 16 g ai/ha, Preemergence) | Plant response rating, Signalgrass ([3]; Postemergence, 16 g ai/ha) | Plant response rating, Guineagrass ([5]; Postemergence, 16 g ai/ha) | Plant response rating, Crabgrass, Naked ([7]; 8 g ai/ha, Preemergence) | Plant response rating, Crabgrass, Naked ([7]; 16 g ai/ha, Preemergence)
75: Plant response rating, Signalgrass ([3]; Postemergence, 8 g ai/ha) | Plant response rating, Itchgrass ([6]; 31 g ai/ha, Preemergence) | Plant response rating, Crabgrass, Naked ([7]; Postemergence, 16 g ai/ha)
